Source: ChEMBL document CHEMBL1201862, “PubChem BioAssay data set” (2004)
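96-well plates; 48 h exposure; 5 concentrations. Endpoints by linear interpolation between flanking doses. Not reached: highest tested concentration assigned. Abbreviation: GI50, concentration required for 50% inhibition of growth.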 Active and inactive are the calls of the source. No stated cut-off is given here; in the data, active = GI50 up to about 1.1 µM and inactive = higher.

Experiments:
Assay in all cases: NCI tumour cell line growth inhibition, 48 h
[1] = tested on: A498
[2] = tested on: DMS-114
[3] = tested on: SNB-75
[4] = tested on: HT-29
[5] = tested on: RPMI-8226
[6] = tested on: NCI-H460
[7] = tested on: SN12C
[8] = tested on: HL-60
[9] = tested on: NCI-H522
[10] = tested on: UACC-257
[11] = tested on: K562
[12] = tested on: U-251
[13] = tested on: SK-OV-3
[14] = tested on: NCI-H226
[15] = tested on: Malme-3M
[16] = tested on: XF498
[17] = tested on: UO-31
[18] = tested on: NCI-H23
[19] = tested on: UACC-62
[20] = tested on: SK-MEL-28
[21] = tested on: OVCAR-5
[22] = tested on: COLO 205
[23] = tested on: HCC 2998
[24] = tested on: OVCAR-4
[25] = tested on: SK-MEL-5
[26] = tested on: OVCAR-3
[27] = tested on: LOX IMVI
[28] = tested on: OVCAR-8
[29] = tested on: LXFL 529
[30] = tested on: SW-620
[31] = tested on: HOP-92
[32] = tested on: IGROV-1
[33] = tested on: CAKI-1
[34] = tested on: KM12
[35] = tested on: HOP-18
[36] = tested on: DMS-273
[37] = tested on: M19-MEL
[38] = tested on: TK-10
[39] = tested on: DLD-1
[40] = tested on: HCT-116
[41] = tested on: M14
[42] = tested on: HCT-15
[43] = tested on: SF-268
[44] = tested on: A549
[45] = tested on: SNB-19
[46] = tested on: MOLT-4
[47] = tested on: RXF 631
[48] = tested on: 786-0
[49] = tested on: SF-539
[50] = tested on: CCRF-CEM
[51] = tested on: KM-20L2
[52] = tested on: SF-295
[53] = tested on: ACHN
[54] = tested on: EKVX
[55] = tested on: HOP-62
[56] = tested on: SK-MEL-2
[57] = tested on: RXF 393
[58] = tested on: SNB-78
[59] = tested on: SR

Measured: GI50

COC(=O)c1ccc(C(=O)OC)c2nc3cc(Cl)ccc3nc12
> 100 µM: [42]
inactive: [1] > 100 µM | [2] > 100 µM | [3] > 100 µM | [4] 75.3 µM | [5] > 100 µM | [6] > 100 µM | [7] > 100 µM | [8] > 100 µM | [9] > 100 µM | [10] > 100 µM | [11] > 100 µM | [12] > 100 µM | [13] > 100 µM | [14] > 100 µM | [15] > 100 µM | [16] > 100 µM | [17] > 100 µM | [18] > 100 µM | [19] > 100 µM | [20] > 100 µM | [21] > 100 µM | [22] > 100 µM | [23] > 100 µM | [24] > 100 µM | [25] > 100 µM | [26] > 100 µM | [27] > 100 µM | [28] > 100 µM | [29] > 100 µM | [30] > 100 µM | [31] > 100 µM | [32] > 100 µM | [33] > 100 µM | [34] > 100 µM | [35] > 100 µM | [36] > 100 µM | [37] > 100 µM | [38] > 100 µM | [39] > 100 µM | [40] > 100 µM | [41] > 100 µM | [43] > 100 µM | [44] > 100 µM | [45] > 100 µM | [46] > 100 µM | [47] > 100 µM | [48] > 100 µM | [49] > 100 µM | [50] > 100 µM | [51] > 100 µM | [52] > 100 µM | [53] > 100 µM | [54] > 100 µM | [55] > 100 µM | [56] > 100 µM

COc1c(CC(=O)c2ccccc2)c2ccccc2n1C(C)=O
inactive: [57] 34.5 µM | [1] > 100 µM | [2] > 100 µM | [3] > 100 µM | [58] > 100 µM | [4] > 100 µM | [5] > 100 µM | [6] > 100 µM | [7] > 100 µM | [8] > 100 µM | [10] > 100 µM | [11] > 100 µM | [12] > 100 µM | [13] > 100 µM | [16] > 100 µM | [17] 56.8 µM | [18] 58.7 µM | [19] > 100 µM | [20] > 100 µM | [22] > 100 µM | [23] > 100 µM | [24] > 100 µM | [26] > 100 µM | [28] 91 µM | [29] > 100 µM | [30] > 100 µM | [31] > 100 µM | [32] > 100 µM | [33] > 100 µM | [34] > 100 µM | [35] > 100 µM | [36] > 100 µM | [37] > 100 µM | [39] > 100 µM | [40] > 100 µM | [41] > 100 µM | [59] > 100 µM | [44] > 100 µM | [45] > 100 µM | [46] > 100 µM | [47] > 100 µM | [48] 29.9 µM | [49] > 100 µM | [50] > 100 µM | [51] > 100 µM | [52] 72.9 µM | [53] > 100 µM | [54] 35.6 µM | [55] > 100 µM | [56] > 100 µM
> 100 µM: [42]
